# How the values were obtained:
# [1] = tested on: stricture esophageal tissue after ESD; details: half circumferential (50%) ESD; Document 14; cited from earlier work
# [2] = tested on: esophageal stricture after entire circumference (100%) ESD; assay: esophageal entire circumference (100%) ESD model, degree of esophageal stricture by macroscopical findings and histopathological analysis (Masson staining); assay type: in vivo
# Text: For the production of an esophageal entire circumference (100%) ESD model, miniature pigs for experiments were used.
# As miniature pigs, three groups of a physiological saline administered group, a steroid preparation (Kenacort) administered group, and a CHST15 siRNA (manufactured by Hokkaido System Science Co., Ltd., lot number: 40481638) administered group were used (n=1/group). The miniature pig in each group was orally inserted with an upper gastrointestinal endoscope under general anesthesia and respiratory control, and an entire circumference (100%) ESD was performed using a dual knife with a total length of […] between 15 cm and 25 cm from the portal dentition. Into an entire circumference artificial ulcer immediately after preforming ESD was injected 2 mL in total of an administration solution (physiological saline, steroid preparation, CHST15 siRNA, 250 nM solution) using an endoscopic injection needle at a total of 20 locations so as to evenly cover the entire circumference from the ulcer bottom.
# If no treatment is performed after ESD, esophageal stricture will develop within 2 weeks and food will not pass through, and the miniature pig will die within 4 weeks thereafter, so that the observation period after a single time administration was set to 2 weeks, the entire group was slaughtered after 2 weeks (Day 14), and the degree of esophageal stricture was investigated by macroscopical findings, and histopathological analysis (Masson staining).
# [3] = single local injection immediately after ESD, Day 14, n=1/group
substance,measurement,setting,value
CHST15 siRNA: siRNA having a structure in which the RNAs described in SEQ ID NOs:1 and 2 are hybridized; suppresses expression of the CHST15 gene (chain 1 GGAGCAGAGCAAGAUGAAUACAAUCAG; chain 2 GAUUGUAUUCAUCUUGCUCUGCUCCAU; chemistry not given here),fibrosis when expression of CHST15 mRNA is suppressed,[1],fibrosis is suppressed
same,suppressing effect of esophageal stricture after entire circumference ESD (overall),[2]; consideration / summary of Example 1,remarkable stricture suppressing effect
same,"damage of the muscular layer (pathological findings, Masson staining)","[2]; pig, in vivo",no damage of the muscular layer was observed
same,"artificial ulcer repair / regenerated epithelium (pathological findings, Masson staining)",[2]; [3],almost covered with regenerated epithelium
same,edible state (macroscopical findings),[2]; [3],edible
same,esophageal stricture / obstruction (macroscopical findings),[2]; [3],no stricture or obstruction
same,"fibrosis deeper than the ulcer floor (pathological findings, Masson staining)",[2]; [3],no pathological fibrosis
same,shortening of esophageal length (macroscopical findings),"[2]; single local injection into artificial ulcer immediately after ESD, 2 mL in total at 20 locations (CHST15 siRNA 250 nM solution), Day 14, n=1/group",substantially not observed

# Reference: US12527812B2, “Esophageal stricture suppressing agent” (priority 2019, dated 2026)
